One may read the IC50 as the midpoint of a concentration-inhibition curve.

Sequence of IRAK4 (Q9NWZ3 whole entry): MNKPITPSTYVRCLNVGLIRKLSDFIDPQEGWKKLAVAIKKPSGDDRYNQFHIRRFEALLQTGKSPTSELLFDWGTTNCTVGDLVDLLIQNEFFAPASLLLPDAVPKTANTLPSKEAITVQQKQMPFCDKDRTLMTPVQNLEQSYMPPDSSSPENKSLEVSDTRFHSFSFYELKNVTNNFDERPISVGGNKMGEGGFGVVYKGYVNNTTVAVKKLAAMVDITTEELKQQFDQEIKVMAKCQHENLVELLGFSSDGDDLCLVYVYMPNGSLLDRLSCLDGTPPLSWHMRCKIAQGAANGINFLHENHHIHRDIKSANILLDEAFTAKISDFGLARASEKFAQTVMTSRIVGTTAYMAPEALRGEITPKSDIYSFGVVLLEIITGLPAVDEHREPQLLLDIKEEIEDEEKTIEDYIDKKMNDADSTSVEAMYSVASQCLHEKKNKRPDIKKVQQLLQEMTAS

The experiment concerns the target IRAK4 (Homo sapiens (Human), UniProt Q9NWZ3). Nature of the experiment: IRAK4 kinase activity, IMAP fluorescence polarization assay. It counts as biochemical. Particulars: 100 μM ATP; read-out: IC50. The procedure, abridged:
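GST-tagged IRAK4 at 0.5 nM phosphorylates 100 nM fluorescent peptide substrate with 100 μM ATP in pH 7.2 Tris buffer containing MgCl2, DTT and Tween 20, 30 min at 25 °C. Reaction stopped with IMAP binding reagent; phosphorylation read as increased fluorescence polarization.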
(Fluorescence polarisation rises when a labelled molecule tumbles more slowly, as on binding a larger partner.)
In the case of `O=c1[nH]c(N2CCOCC2)nc(NCCN2CCC(O)CC2)c1-c1ccc2ccccc2n1` [Example 282, 6-[[2-(4-hydroxypiperidin-1-yl)ethyl]amino]-2-(morpholin-4-yl)-5-(quinolin-2-yl)-3,4-dihydropyrimidin-4-one], the half-maximal inhibitory concentration (IC50) worked out at 2200 nM.

`O=c1[nH]c(N2CCOC(CO)C2)nc(N[C@@H]2CCCNC2)c1-c1nc2ccccc2s1` (stereo partly drawn) [Example 285, 5-(1,3-benzothiazol-2-yl)-2-[2-(hydroxymethyl)morpholin-4-yl]-6-[[(3R)-piperidin-3-yl]amino]-3,4-dihydropyrimidin-4-one]: the IC50 stood at 43 nM.

As for `COCC1CN(c2nc(N[C@@H]3CCCNC3)c(-c3nc4ccccc4s3)c(=O)[nH]2)CCO1` (stereo partly drawn) [Example 286, 5-(benzo[d]thiazol-2-yl)-2-(2-(methoxymethyl)morpholino)-6-((R)-piperidin-3-ylamino)pyrimidin-4(3H)-one], the IC50 amounted to 81 nM.

With `CNC(=O)C1CN(c2nc(N[C@@H]3CCCNC3)c(-c3nc4ccccc4s3)c(=O)[nH]2)CCO1` (stereo partly drawn) [Example 287, 4-(5-(benzo[d]thiazol-2-yl)-6-oxo-4-((R)-piperidin-3-ylamino)-1,6-dihydropyrimidin-2-yl)-N-methylmorpholine-2-carboxamide], the half-inhibitory concentration (IC50) came out at 110 nM.

`O=c1[nH]c(N2CCC2)nc(N[C@@H]2CCCNC2)c1-c1nc2ccccc2s1` [Example 288, (R)-2-(azetidin-1-yl)-5-(benzo[d]thiazol-2-yl)-6-(piperidin-3-ylamino)pyrimidin-4(3H)-one]: the concentration for half-maximal inhibition (IC50) was 2000 nM.

For the molecule `CN(C)c1nc(N[C@@H]2CCCNC2)c(-c2nc3ccccc3s2)c(=O)[nH]1` [Example 289, (R)-5-(benzo[d]thiazol-2-yl)-2-(dimethylamino)-6-(piperidin-3-ylamino)pyrimidin-4(3H)-one], the 50% inhibitory concentration (IC50) was determined as 74 nM.

`CC1CCCN(c2nc(N[C@@H]3CCCNC3)c(-c3nc4ccccc4s3)c(=O)[nH]2)C1` (stereo partly drawn) [Example 290, 5-(benzo[d]thiazol-2-yl)-2-(3-methylpiperidin-1-yl)-6-((R)-piperidin-3-ylamino)pyrimidin-4(3H)-one]: the IC50 came to 140 nM.

As for `O=c1[nH]c(N[C@H]2c3ccccc3C[C@@H]2O)nc(N[C@@H]2CCCNC2)c1-c1nc2ccccc2s1` [Example 291, 5-(benzo[d]thiazol-2-yl)-2-((1S,2S)-2-hydroxy-2,3-dihydro-1H-inden-1-ylamino)-6-((R)-piperidin-3-ylamino)pyrimidin-4(3H)-one], the IC50 came to 3000 nM.

As for `CN(CCO)c1nc(N[C@@H]2CCCNC2)c(-c2nc3ccccc3s2)c(=O)[nH]1` [Example 292, (R)-5-(benzo[d]thiazol-2-yl)-2-((2-hydroxyethyl)(methyl)amino)-6-(piperidin-3-ylamino)pyrimidin-4(3H)-one], the half-inhibitory concentration (IC50) was determined as 190 nM.

Consider `COC1CCN(c2nc(N[C@@H]3CCCNC3)c(-c3nc4ccccc4s3)c(=O)[nH]2)CC1` [Example 293, (R)-5-(benzo[d]thiazol-2-yl)-2-(4-methoxypiperidin-1-yl)-6-(piperidin-3-ylamino)pyrimidin-4(3H)-one], for which the half-maximal inhibitory concentration (IC50) was found to be 63 nM.

For `CC1CN(c2nc(N[C@@H]3CCCNC3)c(-c3nc4ccccc4s3)c(=O)[nH]2)CC(C)O1` (stereo partly drawn) [Example 294, 5-(benzo[d]thiazol-2-yl)-2-(2,6-dimethylmorpholino)-6-((R)-piperidin-3-ylamino)pyrimidiri-4{3H)-one], the IC50 stood at 300 nM.

Turning to `O=c1[nH]c(N2CCCC2)nc(N[C@@H]2CCCNC2)c1-c1nc2ccccc2s1` [Example 295], the half-inhibitory concentration (IC50) worked out at 11 nM.

As to `CC1CC(C)CN(c2nc(N[C@@H]3CCCNC3)c(-c3nc4ccccc4s3)c(=O)[nH]2)C1` (stereo partly drawn) [Example 296, 5-(1,3-benzothiazol-2-yl)-2-(3,5-dimethylpiperidin-1-yl)-6-[[(3R)-piperidin-3-yl]amino]-3,4-dihydropyrimidin-4-one trifluoroacetic acid], the IC50 is 570 nM.

Turning to `CC1CCN(c2nc(N[C@@H]3CCCNC3)c(-c3nc4ccccc4s3)c(=O)[nH]2)CC1` [Example 297, 5-(1,3-benzothiazol-2-yl)-2-(4-methylpiperidin-1-yl)-6-[[(3R)-piperidin-3-yl]amino]-3,4-dihydropyrimidin-4-one], the IC50 is 69 nM.

Turning to `O=c1[nH]c(N[C@H]2c3ccccc3C[C@H]2O)nc(N[C@@H]2CCCNC2)c1-c1nc2ccccc2s1` [Example 298, 5-(1,3-benzothdazol-2-yl)-2-[[(1S,2R)-2-hydroxy-2,3-dihydro-1H-inden-1-yl]amino]-6-[[(3R)-piperidin-3-yl]amino]pyrimidin-4-ol; formic acid], the IC50 turned out to be 2500 nM.

Turning to `O=c1[nH]c(N[C@@H]2c3ccccc3C[C@@H]2O)nc(N[C@@H]2CCCNC2)c1-c1nc2ccccc2s1` [Example 299, 5-(1,3-benzothiazol-2-yl)-2-[[(1R,2S)-2-hydroxy-2,3-dihydro-1H-inden-1-yl]amino]-6-[[(3R)-piperidin-3-yl]amino]pyrimidin-4-ol formic acid], the half-inhibitory concentration (IC50) stood at 1200 nM.

Take `O=c1[nH]c(N2CC3CCC(C2)O3)nc(N[C@@H]2CCCNC2)c1-c1nc2ccccc2s1` [Example 300, 5-(1,3-benzothiazol-2-yl)-2-[8-oxa-3-azabicyclo[3.2.1]octan-3-yl]-6-[[(3R)-piperidin-3-yl]amino]-3,4-dihydropyrimidin-4-one; trifluoroacetic acid]: the IC50 worked out at 43 nM.

`CN(c1nc(NC2CCCNC2)c(-c2nc3ccccc3s2)c(=O)[nH]1)[C@H]1CC[C@H](O)CC1` (stereo partly drawn) [Example 301, 5-(1,3-benzothiazol-2-yl)-2-[(4-hydroxycyclohexyl)(methyl)amino]-6-[[(3R)-piperidin-3-yl]amino]-3,4-dihydropyrimidin-4-one; trifluoroacetic acid]: the IC50 worked out at 390 nM.

For the molecule `NC(=O)CNc1nc(N[C@@H]2CCCNC2)c(-c2nc3ccccc3s2)c(=O)[nH]1` [Example 302, (R)-2-(5-(benzo[d]thiazol-2-yl)-6-oxo-4-(piperidin-3-ylamino)-1,6-dihydropyrimidin-2-ylamino)acetamide bis(2,2,2-trifluoroacetate)], the IC50 was determined as 2300 nM.

For the molecule `O=C1C[C@@H](Nc2nc(N[C@@H]3CCCNC3)c(-c3nc4ccccc4s3)c(=O)[nH]2)Cc2ccccc2N1` [Example 303, (S)-4-(5-(benzo[d]thiazol-2-yl)-6-oxo-4-((R)-piperidin-3-ylamino)-1,6-dihydropyrimidin-2-ylamino)-4,5-dihydro-1H-benzo[b]azepin-2(3H)-one], the 50% inhibitory concentration (IC50) was 5900 nM.

As for `O=C1C[C@H](Nc2nc(N[C@@H]3CCCNC3)c(-c3nc4ccccc4s3)c(=O)[nH]2)Cc2ccccc2N1` [Example 304], the IC50 came to 8900 nM.

In the case of `O=c1[nH]c(N2CCC(CO)CC2)nc(N[C@@H]2CCCNC2)c1-c1nc2ccccc2s1` [Example 305, 5-(1,3-benzothiazol-2-yl)-2-[4-(hydroxymethyl)piperidin-1-yl]-6-[[(3R)-piperidin-3-yl]amino]-3,4-dihydropyrimidin-4-one], the 50% inhibitory concentration (IC50) was found to be 62 nM.

For `O=c1[nH]c(N2CC[C@H](O)C2)nc(N[C@@H]2CCCNC2)c1-c1nc2ccccc2s1` [Example 306, 5-(benzo[d]thiazol-2-yl)-2-((S)-3-hydroxy-pyrrolidin-1-yl)-6-((R)-piperidin-3-ylamino)pyrimidin-4(3H)-one bis(2,2,2-trifluoro-acetate)], the IC50 was 23 nM.
